{"source": "paper PMC8322648", "about": "“Brevibacillin 2V Exerts Its Bactericidal Activity via Binding to Lipid II and Permeabilizing Cellular Membranes” (Frontiers in Microbiology, 2021)", "key": {"[1]": {"system": "S. aureus ATCC15975 (MRSA)", "test": "Time-killing assay", "assay_type": "cell-based, Staphylococcus aureus", "conditions": "MHB, 37°C; for time to complete killing of all cells: 10 × MIC (nisin 40 μg/ml; brevibacillins 20 μg/ml), ≈ 5 × 10^6 cells per ml, 220 rpm, triplicate", "experimental": "This assay was performed according to a previously described procedure ([Ling et al., 2015]; [Zhao et al., 2020b]). An overnight culture of cells [S. aureus ATCC15975 (MRSA)] was diluted 50-fold in MHB and incubated at 37°C with aeration at 220 rpm. Bacteria were grown to an OD600 of 0.5, and then, the concentration of cells was adjusted to ≈ 5 × 10^6 cells per ml. Bacteria were then challenged with nisin (40 μg/ml), brevibacillin (20 μg/ml), brevibacillin V (20 μg/ml), brevibacillin I (20 μg/ml), or brevibacillin 2V (20 μg/ml) in culture tubes at 37°C and 220 rpm (peptides at 10 × MIC, a desirable concentration at the site of infection). Bacteria not treated with peptides were used as negative controls. At desired time points, 200 μl aliquots were taken, centrifuged at 8,000 g for 2 min, and resuspended in 200 μl of MHB. 10-fold serially diluted samples were plated on MHA plates. After incubated at 37°C overnight, colonies were counted and c.f.u. per ml was calculated. Each experiment was performed in triplicate."}, "[2]": {"system": "S. aureus ATCC15975 (MRSA) membrane", "test": "DiSC3(5) membrane potential assay", "assay_type": "cell-based, Staphylococcus aureus", "conditions": "2 × MIC", "experimental": "Staphylococcus aureus ATCC15975 (MRSA) was grown to an OD600 of 0.8. The culture was pelleted at 5,000 × g for 5 min and washed three times in 10 mm HEPES with 10 mm glucose (pH 7.2). The cell density was normalized to an OD600 of 0.2, loaded with 2 μm DiSC3(5) dye, and incubated for 20 min in the dark for probe fluorescence to stabilize. After incubation, KCl was added to the cell suspension at a final concentration of 100 mm. Subsequently, the cell suspension was added to a 96-well microplate and incubation for 5 min; after that, antibiotics were added at a final concentration of 2 × MIC. Fluorescence was monitored for 25 min, with the antibiotics added after ~20 s. The excitation and emission wavelengths on the fluorescence spectrometer were adjusted to 622 nm and 670 nm, respectively. Representative examples from three technical replicates are shown."}, "[3]": {"system": "Staphylococcus aureus (MRSA)", "conditions": "Staphylococcus aureus (MRSA); Figure 1; ref Zhao et al., 2021; cited from earlier work", "text": "Figure 1 Structures of brevibacillins. The red color indicates the more hydrophobic amino acid residues of brevibacillin V, brevibacillin and brevibacillin I relative to brevibacillin 2V. MIC, the minimum inhibitory concentration against Staphylococcus aureus (MRSA). HC50, the 50% human blood cell hemolysis concentration. CC50, the 50% cell (HepG2) toxicity concentration. […] LUVs-based CF leakage assay is widely used in the studies of the antibiotic mode of action ([Hasper et al., 2004]; [Smith et al., 2008]; [Slootweg et al., 2015]; [Bakhtiary et al., 2017]). Disruption of the vesicle membrane by certain compounds releases CF from the LUVs into the extra-vesicular milieu resulting in increased fluorescence signal (Figure ..."}, "HepG2": {"system": "HepG2", "conditions": "Figure 1, ref Zhao et al., 2021; cited from earlier work", "text": "(§1) A vast number of bacterial non-ribosomally produced peptides (NRPs) have shown strong antimicrobial activity against pathogenic bacteria ([Cochrane et al., 2014]; [Cociancich et al., 2015]; [Hamamoto et al., 2015]; [Ling et al., 2015]; [Süssmuth and Mainz, 2017]). Lipo-tridecapeptides, a class of NRPs, show strong antimicrobial activity against Gram-positive pathogens, including antibiotic-resistant Staphylococcus aureus and Enterococcus spp. ([Barsby et al., 2001], [2006]; [Yang et al., 2016]; [Wu et al., 2019]; [Zhao et al., 2021]). However, many of these lipo-tridecapeptides have shown high ... || Figure 1 Structures of brevibacillins. The red color indicates the more hydrophobic amino acid residues of brevibacillin V, brevibacillin and brevibacillin I relative to brevibacillin 2V. MIC, the minimum inhibitory concentration against Staphylococcus aureus (MRSA). HC50, the 50% human blood cell hemolysis concentration. CC50, the 50% cell (HepG2) toxicity concentration."}, "human red blood cells": {"system": "human red blood cells", "conditions": "Figure 1, ref Zhao et al., 2021; cited from earlier work", "text": "as §1"}, "[4]": {"conditions": "ref Zhao et al., 2021; cited from earlier work"}, "[5]": {"conditions": "ref Varney et al., 2013; Bakhtiary et al., 2017; cited from earlier work", "experimental": "To investigate the role of Lipid II-binding ability of brevibacillins in their membrane disruption capacity, CF leakage assays were performed using LUVs composed of DOPC with or without Lipid II and containing CF at self-quenching concentrations. LUVs-based CF leakage assay is widely used in the studies of the antibiotic mode of action ([Hasper et al., 2004]; [Smith et al., 2008]; [Slootweg et al., 2015]; [Bakhtiary et al., 2017]). Disruption of the vesicle membrane by certain compounds releases CF from the LUVs into the extra-vesicular milieu resulting in increased fluorescence signal (Figure ..."}, "[6]": {"system": "S. aureus ATCC15975 (MRSA)", "test": "Spot-on-lawn assay with Lipid II", "assay_type": "cell-based, Staphylococcus aureus", "conditions": "brevibacillins 0.68 μg, nisin and daptomycin 1.36 μg; Lipid II 300 μM, 4 μl, at edge of halo; MHA, 37°C overnight", "experimental": "An overnight cultured S. aureus ATCC15975 (MRSA) was added to 0.6% MHA (w/v, temperature 42°C) at a final concentration of 0.1% (v/v), and then, the mixture was poured to the plates 10 ml for each. The binding of peptide and Lipid II ([Hasper et al., 2006]) was further evaluated by spotting of purified Lipid II (300 μm, 4 μl) to the edge of inhibition halo of antibiotics (brevibacillins, 0.68 μg; nisin and daptomycin, 1.36 μg). Briefly, antibiotics were loaded to the agar plate. After the antibiotic solution drops had dried, purified Lipid II was spotted to the edge (identified by a pre-experiment) of inhibition halo of antibiotics ([Wang et al., 2020]). After the Lipid II solution drops had dried, the plates were transferred to a 37°C incubator for overnight incubation."}, "[7]": {"conditions": "membrane-embedded Lipid II; ref Islam et al., 2012; ‘t Hart et al., 2016; Bakhtiary et al., 2017; Chiorean et al., 2020; cited from earlier work", "experimental": "After confirmation of the fact that brevibacillins bind to Lipid II, an ITC assay was performed to determine the binding affinity of brevibacillins for Lipid II. For this, 2 mol % Lipid II was incorporated into DOPC-based LUVs. […] Nisin, teixobactin, nukacin ISK-1, and lacticin 3147 ..."}, "[8]": {"system": "S. aureus ATCC15975 (MRSA)", "test": "Fluorescence microscopy, LIVE/DEAD BacLight (SYTO 9/propidium iodide)", "assay_type": "cell-based, Staphylococcus aureus", "conditions": "2 × MIC (brevibacillins 4 μg/ml, nisin 8 μg/ml), 15 min, room temperature", "experimental": "(§2) Staphylococcus aureus ATCC15975 (MRSA) was grown to an OD600 of 0.8. The culture was pelleted at 5,000 × g for 5 min and washed three times in 10 mm HEPES with 10 mm glucose (pH 7.2). After normalization of the cell density to an OD600 of 0.2 in 10 mm HEPES with 10 mm glucose (pH 7.2), a 2-fold MIC concentration of brevibacillins (4 μg/ml) or nisin (8 μg/ml) was added. At the same time, SYTO® 9 and propidium iodide (LIVE/DEAD Baclight Bacterial Viability Kit, Invitrogen) were added to the above cell suspensions. After incubation at room temperature for 15 min, peptides were removed and washed three times with 10 mm HEPES with 10 mm glucose (pH 7.2). Then, the cell suspensions were loaded on 1.5% agarose pads and analyzed by DeltaVision Elite microscope (Applied Precision; [Zhao and Kuipers, 2021])."}, "[9]": {"test": "Pyrene-labeled Lipid II fluorescence quenching assay", "assay_type": "binding", "conditions": "50 μM DOPC LUVs with 0.5 mol % pyrene-labeled Lipid II, 20°C, ex 350 nm", "experimental": "The effects of antibiotics on pyrene-labeled Lipid II were measured using 50 μm DOPC-based large unilamellar vesicles (LUVs) containing 0.5 mol % pyrene-labeled Lipid II ([Breukink et al., 2003]). Briefly, the LUVs were added to a quartz cuvette and titrated with nisin, brevibacillin, or brevibacillin 2V with stirring at 20°C. The fluorescence spectra were recorded between 360 and 600 nm (λex350 nm) using a Cary Eclipse Fluorescence Spectrophotometer (Agilent, United States)."}, "S. aureus (MRSA)": {"system": "S. aureus (MRSA)", "test": "Membrane permeability assay, concentration series (fluorescence microscopy)", "assay_type": "cell-based, Staphylococcus aureus", "conditions": "100 nM and 400 nM, 15 min; ratio of membrane permeabilized cells; three independent experiments; p < 0.05", "experimental": "as §2\nGraphPad Prism 7.0 was used to fit the data of time-killing assay, DiSC3(5) assay, fluorescence quenching assay, ITC assay, and CF Leakage assay in Figures 3–7. The fluorescence images (ratio of membrane permeabilized cells) were quantified by the software Adobe Photoshop 2021. The Kd values of brevibacillins to Lipid II were calculated using the Nano Analyze Software (Waters LLC). The statistical significance of the data was assessed using Duncan’s multiple range test with the software SPSS Statistics 26; values of p < 0.05 were considered to be statistically significant.\nFigure 7 Brevibacillins disrupt membrane permeability without the need for Lipid II binding. (A), Cartoon schematic of the assay used to assess membrane permeability disruption of brevibacillins. (B), CF releases (%) vs. time graph showing the effects of adding brevibacillins to DOPC-LUVs with 0.1% Lipid II; peptide concentrations were 100 nm; a, when peptides were added; and b, when 20% Triton X-100 added. (C), CF releases (%) vs. time graph showing the effects of adding brevibacillins to LUVs of pure DOPC; peptide concentrations were 100 nm; a, when peptides were added; and b, when 20% Triton X-100 was added. (D), fluorescence microscopic images of S. aureus (MRSA) after have been treated by a series concentrations of brevibacillins and nisin for 15 min. (E), the ratio of membrane permeabilized cells that was quantified by Adobe Photoshop 2021; the data are representative of three independent experiments.\nTo investigate the in vivo membrane disruption capacity of brevibacillin and brevibacillin 2V, a membrane permeability assay was performed with a series of concentrations of antibiotics. Nisin was used as a control."}, "[10]": {"test": "31P solid-state NMR of Lipid II in liposomes", "assay_type": "binding", "conditions": "DOPC vesicles with 2 mol % Lys-Lipid II, 20 mM HEPES, 100 mM NaCl, pH 8; 200 nmol antibiotic, 100 nmol Lipid II; 500 MHz, 10 kHz MAS, 270 K", "experimental": "Multi-lamellar vesicles of DOPC doped with 2 mol % Lys-Lipid II in buffer (20 mm HEPES, 100 mm NaCl, and pH = 8) were collected by centrifugation (60,000 × g) and loaded into 3.2 mm ssNMR rotors. For 3.2 mm rotors, we used 200 nmol of antibiotic with 100 nmol of Lipid II. The 1D ^31P ssNMR experiments were performed at 500 MHz (^1H frequency) magnetic field using 10 kHz magic angle spinning (MAS) at 270 K sample temperature."}}, "note": "No end group written: not given here.", "data": [{"substance": "Brevibacillin V", "values": [{"measurement": "killing kinetics / capacity, in words", "setting": "[1]; 10 × MIC (brevibacillins 20 μg/ml; nisin 40 μg/ml)", "result": "intermediate killing capacity"}, {"measurement": "time to complete killing of all cells", "setting": "[1]", "result": "≤ 2", "unit": "h"}, {"measurement": "speed of membrane permeabilization", "setting": "[2]", "result": "appeared to act faster than brevibacillin 2V and the well-known pore-forming antibiotic nisin"}, {"measurement": "rank order of membrane disruption capacity", "setting": "[2]; correlates with calculated hydrophobicity", "result": "brevibacillin I > brevibacillin > brevibacillin V > brevibacillin 2V"}, {"measurement": "MIC", "setting": "[3]", "result": 2, "unit": "µg/mL"}, {"measurement": "CC50, 50% cell (HepG2) toxicity concentration", "setting": "HepG2", "result": "9.89 ± 0.67", "unit": "µg/mL"}, {"measurement": "HC50, 50% human blood cell hemolysis concentration", "setting": "human red blood cells", "result": "73.1 ± 1.4", "unit": "mg/L"}, {"measurement": "rank order of calculated hydrophobicity", "setting": "[4]", "result": "brevibacillin I > brevibacillin > brevibacillin V > brevibacillin 2V"}]}, {"substance": "HNP-1: Lipid II-targeting antimicrobial", "values": [{"measurement": "membrane disruption in Lipid II containing and Lipid II lacking LUVs", "setting": "[5]", "result": "cause membrane disruption in both Lipid II containing LUVs and Lipid II lacking LUVs"}]}, {"substance": "daptomycin", "values": [{"measurement": "antimicrobial activity upon addition of purified Lipid II", "setting": "[6]", "result": "kept its antimicrobial activity against S. aureus (MRSA)"}]}, {"substance": "lacticin 3147", "values": [{"measurement": "Kd", "setting": "[7]", "result": 920, "unit": "nM"}, {"measurement": "membrane disruption in Lipid II containing and Lipid II lacking LUVs", "setting": "[5]", "result": "cause membrane disruption in both Lipid II containing LUVs and Lipid II lacking LUVs"}]}, {"substance": "nisin: well-known Lipid II-targeting antibiotic, pore-forming, used as control (ITSISLCTPGCKTGALMGCNMKTATCHCSIHVSK; not fully specified (some residues, bridges); cysteine pairing not given here; UniProt P13068 24-57, looked up) [reference compound]", "values": [{"measurement": "time to complete killing of all cells", "setting": "[1]", "result": "≤ 4", "unit": "h"}, {"measurement": "membrane integrity (SYTO 9 / propidium iodide staining)", "setting": "[8]", "result": "turned red, indicative of a compromised membrane"}, {"measurement": "antimicrobial activity upon addition of purified Lipid II", "setting": "[6]", "result": "diminished"}, {"measurement": "excimer fluorescence (about 490 nm)", "setting": "[9]", "result": "appearance of a fluorescence peak around 490 nm, indicating the formation of excimers"}, {"measurement": "pyrene monomer fluorescence", "setting": "[9]", "result": "clearly induced a decrease of pyrene monomer fluorescence"}, {"measurement": "membrane permeabilization capacity, comparison", "setting": "S. aureus (MRSA)", "result": "significantly (p < 0.05) higher membrane permeabilization capacity than the brevibacillins"}, {"measurement": "Kd", "setting": "[7]", "result": 14.6, "unit": "nM"}]}, {"substance": "vancomycin [reference compound]", "values": [{"measurement": "31P signals of Lipid II pyrophosphate moiety", "setting": "[10]", "result": "no changes observed for the Lipid II pyrophosphate signals"}]}]}
